For two compounds, Ki, Efficacy and IC50 results are on record in ChEMBL document CHEMBL1131477, “Synthesis and biological activity of a novel series of nonsteroidal, peripherally selective androgen receptor antagonists derived from 1,2-dihydropyridono[5,6-g]quinolines” (J Med Chem, 1998).

The target of assay [1] is T1, Androgen receptor (Homo sapiens, UniProt P10275).
T1 sequence (P10275 whole entry): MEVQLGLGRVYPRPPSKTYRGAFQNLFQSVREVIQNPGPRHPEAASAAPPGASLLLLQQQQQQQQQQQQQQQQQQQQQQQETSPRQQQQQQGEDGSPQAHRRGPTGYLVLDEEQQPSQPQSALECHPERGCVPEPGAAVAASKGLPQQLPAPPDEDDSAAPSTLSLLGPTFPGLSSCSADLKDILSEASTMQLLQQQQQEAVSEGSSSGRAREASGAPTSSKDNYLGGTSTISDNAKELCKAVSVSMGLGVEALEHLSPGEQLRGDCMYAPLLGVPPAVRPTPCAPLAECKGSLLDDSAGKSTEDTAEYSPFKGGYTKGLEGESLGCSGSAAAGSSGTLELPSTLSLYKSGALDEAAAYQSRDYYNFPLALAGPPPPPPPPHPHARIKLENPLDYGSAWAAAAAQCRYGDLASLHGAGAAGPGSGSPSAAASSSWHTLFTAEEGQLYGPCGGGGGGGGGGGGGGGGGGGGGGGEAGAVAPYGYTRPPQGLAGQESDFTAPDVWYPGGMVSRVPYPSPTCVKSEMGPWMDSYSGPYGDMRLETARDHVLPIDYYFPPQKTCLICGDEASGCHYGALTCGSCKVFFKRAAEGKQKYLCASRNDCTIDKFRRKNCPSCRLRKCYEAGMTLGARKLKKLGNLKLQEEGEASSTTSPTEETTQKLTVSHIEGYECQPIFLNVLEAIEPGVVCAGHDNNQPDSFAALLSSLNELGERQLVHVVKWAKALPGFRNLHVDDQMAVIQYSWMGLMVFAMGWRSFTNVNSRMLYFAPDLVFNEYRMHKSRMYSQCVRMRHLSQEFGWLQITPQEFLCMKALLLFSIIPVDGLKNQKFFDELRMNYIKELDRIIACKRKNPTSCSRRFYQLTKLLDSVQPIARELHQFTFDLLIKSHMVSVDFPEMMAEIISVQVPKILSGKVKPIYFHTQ
Kind of assay: biochemical.
Description: Binding affinity for human androgen receptor in transiently-transfected COS-1 cells.

The target of assay [2] is T2, Progesterone receptor (Homo sapiens) (UniProt P06401).
T2 sequence (whole entry): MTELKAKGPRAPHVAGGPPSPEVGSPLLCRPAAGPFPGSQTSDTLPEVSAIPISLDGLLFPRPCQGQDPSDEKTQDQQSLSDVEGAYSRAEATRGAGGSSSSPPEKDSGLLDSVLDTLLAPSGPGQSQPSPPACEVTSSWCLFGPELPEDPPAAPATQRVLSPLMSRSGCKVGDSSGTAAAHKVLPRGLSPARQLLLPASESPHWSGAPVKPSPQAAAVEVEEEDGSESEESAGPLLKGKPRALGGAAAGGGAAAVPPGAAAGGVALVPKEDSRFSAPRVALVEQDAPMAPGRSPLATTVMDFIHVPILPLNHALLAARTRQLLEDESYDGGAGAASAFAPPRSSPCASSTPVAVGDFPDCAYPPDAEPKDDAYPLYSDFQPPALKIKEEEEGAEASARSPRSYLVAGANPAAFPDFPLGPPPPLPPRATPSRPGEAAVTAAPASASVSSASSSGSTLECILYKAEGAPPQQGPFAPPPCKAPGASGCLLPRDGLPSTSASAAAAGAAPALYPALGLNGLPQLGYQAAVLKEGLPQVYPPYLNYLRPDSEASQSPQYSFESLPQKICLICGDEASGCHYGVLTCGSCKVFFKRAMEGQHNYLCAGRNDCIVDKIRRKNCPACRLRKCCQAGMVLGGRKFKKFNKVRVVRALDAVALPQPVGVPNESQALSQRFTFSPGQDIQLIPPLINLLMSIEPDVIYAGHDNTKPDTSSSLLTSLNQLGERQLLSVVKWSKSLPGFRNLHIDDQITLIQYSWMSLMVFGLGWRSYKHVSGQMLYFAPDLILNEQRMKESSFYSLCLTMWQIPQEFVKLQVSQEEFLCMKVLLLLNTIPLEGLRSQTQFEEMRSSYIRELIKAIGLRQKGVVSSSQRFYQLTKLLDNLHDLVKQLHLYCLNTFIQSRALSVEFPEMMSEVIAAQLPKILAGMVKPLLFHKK
The experiment in a line: Efficacy as a function of maximal inhibition against human progesterone receptor B (hPR-B).

Assay [3] addresses T3, Progesterone receptor (Homo sapiens, UniProt P06401).
T3 sequence (P06401 whole entry): T2 sequence (whole entry)
The experiment in a line: Antagonistic activity against human progesterone receptor B (hPR-B) in co-transfected CV-1 cells. The class given is functional, cell-based.

The target of assay [4] is T1, Androgen receptor.
Description: Antagonistic activity against human androgen receptor (hAR) in co-transfected CV-1 cells.

Molecules are shown by their SMILES. pIC50, pKi: −log10 of the molar value.

Consider `CCC1CC(C)(C)Nc2cc3nc(O)cc(C(F)(F)F)c3cc21` (stereo not drawn), for which the pKi in assay [1] is 7.27. The compound further showed an Efficacy in assay [2] of 74%. Moreover, the pIC50 in assay [3] is 6.56; in assay [4], 7.57.
In assay [1], `CC1c2cc3c(C(F)(F)F)cc(O)nc3cc2NC(C)(C)C1(C)C` (stereo not drawn) showed a pKi of 6.45. Further, in assay [2], the Efficacy was determined as 93%. The results for the pIC50 in assay [3] and in assay [4] were 6.44 and 7.24, respectively.
